Entries after “also recorded” stand apart in the source; their conditions may differ. Where two headings read alike, the source gives them in different places.
Tests used:
[1] = tested on: acetic acid-induced writhing; experiment: acetic acid-induced writhing method (analgesic activity); format: in vivo, Swiss albino mice; details: for inhibition in vivo at 10 mg/kg: Mus musculus, read-out: % Analgesic Activity; for Potency (analgesic): relative to indomethacin = 1.00, 10 mg/kg; for Mean with ± SEM: writhes counted for 15 min; for analgesic activity (in words): compared with standard indomethacin
Protocol: All the tested compounds and standard drugs are evaluated at 10 mg/kg oral dose.
The analgesic activity of the tested compounds was carried out by acetic acid-induced writhing method as given in the literature using Swiss albino mice of either sex (25–35 g). The writh were induced in the albino mice using an intraperitoneal injection of 1% acetic acid solution. The standard drug indomethacin and test compounds were evaluated at a concentration of 10 mg/kg of the body weight. The animals were divided into groups and each group consisted of six animals. One group was kept as control, one as standard, and other as test groups. To the control group, 0.1% CMC solution was administered p.o; to the standard group, the standard drug was administered orally, and to the test group, test compounds were administered orally. After 60 min of the 0.1% CMC solution/standard drug/tested compound administration, 0.1 ml of 1% (v/v) acetic acid solution in distilled water was injected intraperitoneally in all the mice in each group including the control group. The writhing (a contraction of the abdomen, turning of trunk, and extension of hind limbs) was counted after 5 min of acetic acid administration and were counted for a period of 15 min. The percentage of analgesic activity was calculated using the following formula.
(Mean wriths of control—mean wriths of std./test) / mean wriths of control) × 100

[2] = tested on: Rat Paw Edema; experiment: carrageenan-induced hind paw edema method (anti-inflammatory activity); format: in vivo, Wistar albino rats; details: for inhibition in vivo at 10 mg/kg: Rattus norvegicus, po; for inhibition in vivo at 10 mg/kg / anti-inflammatory activity (in words) / % Age Inhibition of Rat Paw Edema, 4 H: oral dose 10 mg/kg; for inhibition in vivo at 10 mg/kg / % Age Inhibition of Rat Paw Edema, 4 H: mean ± SEM; for anti-inflammatory activity (in words): compared with standard indomethacin; for Potency (anti-inflammatory): relative to indomethacin = 1.00
Protocol: The anti-inflammatory activity of the synthesized compounds (4a–n) was evaluated by the carrageenan-induced paw edema method. An oral dose of 10 mg/kg was used for compounds and compared with the standard. Anti-inflammatory activity was accessed through percentage inhibition after 2 and 4 h (Table 1).
Compounds produced were assessed for their anti-inflammatory activity using the carrageenan-induced hind paw edema method. The anti-inflammatory activity was carried out using Wistar albino rats of either sex (150–220 g) using a Digital Plethysmometer (Model No. 7140, UGO BASILE). The edema was induced by using 1% carrageenan solution. Indomethacin was used as a standard drug. The anti-inflammatory activity of the standard drug and tested compounds was determined at a dose of 10 mg/kg body weight. The animals were divided into groups containing six animals each and the initial paw volume of each rat was noted by the NaCl displacement method. One group was kept as control, one as standard, and the rest of the groups of compounds were to be tested. To the control group, 1% CMC solution was administered p.o. To the standard group, the standard drug was administered orally. To the test group, tested compounds were administered orally. After 60 min of the 1% CMC solution/standard drug/test compound administration, 0.1 ml of 1% (w/v) carrageenan was injected in the plantar region of the hind limb (right) of all the rats in each group including the control group. The paw volume was again measured after the time interval of 2 and 4 h. Using the following formula, inflammation was calculated as percentage inhibition for the test and reference compounds
(Final foot volume of control—final foot volume of std./test) × 100 / final foot volume of control)

[3] = 2 h, 2 h, read-out: % Age Inhibition of Rat Paw Edema, 2 H
[4] = 4 h, 4 h, read-out: % Age Inhibition of Rat Paw Edema, 4 H

SMILES: O=C1C(=NNc2nc(-c3cc4ccccc4oc3=O)cs2)c2ccccc2N1CNc1ccccc1 [Compound 4a, 3-{[4-(2-Oxo-2H-chromen-3-yl)-thiazol-2-yl]-hydrazono}-1-phenylaminomethyl-1,3-dihydro-indol-2-one]
- inhibition in vivo at 10 mg/kg ([1]; oral dose 10 mg/kg, mean ± SEM): 47.5 ± 0.707%
- Potency (analgesic) [1]: 0.64
- Mean with ± SEM ([1]; oral dose 10 mg/kg): 17.00 ± 0.2582
- melting point: 245 to 247 °C
- inhibition in vivo at 10 mg/kg [2, 3]: 38.29 ± 0.016%
- inhibition in vivo at 10 mg/kg [2, 4]: 5.57 ± 0.041%
- anti-inflammatory activity (in words) [2]: negligible anti-inflammatory activity
- Potency (anti-inflammatory) ([2]; 10 mg/kg): 0.06

SMILES: O=C1C(=NNc2nc(-c3cc4ccccc4oc3=O)cs2)c2ccccc2N1CNc1ccc(F)cc1 [Compound 4b, 1-[(4-Fluoro-phenylamino)-methyl]-3-{[4-(2-oxo-2H-chromen-3-yl)-thiazol-2-yl]-hydrazono}-1,3-dihydro-indol-2-one]
- inhibition in vivo at 10 mg/kg ([1]; oral dose 10 mg/kg, mean ± SEM): 25.9 ± 0.58%
- Potency (analgesic) [1]: 0.35
- Mean with ± SEM ([1]; oral dose 10 mg/kg): 24.00 ± 0.3651
- melting point: 242 to 244 °C
- inhibition in vivo at 10 mg/kg [2, 3]: 59.3 ± 0.73%
- inhibition in vivo at 10 mg/kg [2, 4]: 45.81 ± 0.069%
- Potency (anti-inflammatory) ([2]; 10 mg/kg): 0.55

SMILES: O=C1C(=NNc2nc(-c3cc4ccccc4oc3=O)cs2)c2ccccc2N1CNc1ccc(Br)cc1 [Compound 4d, 1-[(4-Bromo-phenylamino)-methyl]-3-{[4-(2-oxo-2H-chromen-3-yl)-thiazol-2-yl]-hydrazono}-1,3-dihydro-indol-2-one]
- inhibition in vivo at 10 mg/kg ([1]; oral dose 10 mg/kg, mean ± SEM): 42.9 ± 0.71%
- Potency (analgesic) [1]: 0.58
- Mean with ± SEM ([1]; oral dose 10 mg/kg): 18.50 ± 0.4282
- melting point: 241 to 243 °C
- inhibition in vivo at 10 mg/kg [2, 3]: 51.92 ± 0.337%
- inhibition in vivo at 10 mg/kg [2, 4]: 6.98 ± 0.315%
- anti-inflammatory activity (in words) [2]: negligible anti-inflammatory activity
- Potency (anti-inflammatory) ([2]; 10 mg/kg): 0.08

SMILES: O=C1C(=NNc2nc(-c3cc4ccccc4oc3=O)cs2)c2ccccc2N1CNc1ccccc1[N+](=O)[O-] [Compound 4e, 1-[(2-Nitro-phenylamino)-methyl]-3-{[4-(2-oxo-2H-chromen-3-yl)-thiazol-2-yl]-hydrazono}-1,3-dihydro-indol-2-one]
- inhibition in vivo at 10 mg/kg ([1]; oral dose 10 mg/kg, mean ± SEM): 47.9 ± 1%
- Potency (analgesic) [1]: 0.65
- Mean with ± SEM ([1]; oral dose 10 mg/kg): 16.88 ± 0.222
- melting point: 244 to 246 °C
- inhibition in vivo at 10 mg/kg [2, 3]: 62.24 ± 0.08%
- inhibition in vivo at 10 mg/kg [2, 4]: 48.6 ± 0.09%
- Potency (anti-inflammatory) ([2]; 10 mg/kg): 0.59

SMILES: O=C1C(=NNc2nc(-c3cc4ccccc4oc3=O)cs2)c2ccccc2N1CNc1ccc([N+](=O)[O-])cc1[N+](=O)[O-] [Compound 4g, 1-[(2,4-Dinitro-phenylamino)-methyl]-3-{[4-(2-oxo-2H-chromen-3-yl)-thiazol-2-yl]-hydrazono}-1,3-dihydro-indol-2-one]
- inhibition in vivo at 10 mg/kg ([1]; po): 38 ± 1%
- Potency (analgesic) [1]: 0.51
- Mean with ± SEM ([1]; oral dose 10 mg/kg): 20.09 ± 0.3561
- melting point: 247 to 249 °C
- inhibition in vivo at 10 mg/kg [2, 3]: 53.57 ± 0.16%
- inhibition in vivo at 10 mg/kg [2, 4]: 77.9%
- % Age Inhibition of Rat Paw Edema, 4 H ([2]; 4 h, 10 mg/kg): 77.94 ± 0.184 %
- anti-inflammatory activity (in words) ([2]; 10 mg/kg): good anti-inflammatory activity; also recorded: significant anti-inflammatory activity
- Potency (anti-inflammatory) ([2]; 10 mg/kg): 0.94

SMILES: O=C1C(=NNc2nc(-c3cc4ccccc4oc3=O)cs2)c2ccccc2N1CNn1cnnc1 [Compound 4h, 3-{[4-(2-Oxo-2H-chromen-3-yl)-thiazol-2-yl]-hydrazono}-1-([1,2,4]triazol-4-ylaminomethyl)-1,3-dihydro-indol-2-one]
- inhibition in vivo at 10 mg/kg ([1]; oral dose 10 mg/kg, mean ± SEM): 26.5 ± 0.317%
- analgesic activity (in words) ([1]; oral dose 10 mg/kg): steep decrease in analgesic activity
- Potency (analgesic) [1]: 0.35
- Mean with ± SEM ([1]; oral dose 10 mg/kg): 23.83 ± 0.3073
- melting point: 236 to 238 °C
- inhibition in vivo at 10 mg/kg [2, 3]: 35.39 ± 0.273%
- inhibition in vivo at 10 mg/kg [2, 4]: 64.69 ± 0.245%
- Potency (anti-inflammatory) ([2]; 10 mg/kg): 0.78

SMILES: O=C1C(=NNc2nc(-c3cc4ccccc4oc3=O)cs2)c2ccccc2N1CNc1ccncc1 [Compound 4j, 3-{[4-(2-Oxo-2H-chromen-3-yl)-thiazol-2-yl]-hydrazono}-1-(pyridine-4-ylaminomethyl)-1,3-dihydro-indol-2-one]
- inhibition in vivo at 10 mg/kg ([1]; oral dose 10 mg/kg, mean ± SEM): 47.14 ± 0.402%
- Potency (analgesic) [1]: 0.64
- Mean with ± SEM ([1]; oral dose 10 mg/kg): 17.13 ± 0.539
- melting point: 237 to 239 °C
- inhibition in vivo at 10 mg/kg [2, 3]: 53.81 ± 0.12%
- inhibition in vivo at 10 mg/kg [2, 4]: 77.9%
- anti-inflammatory activity (in words) ([2]; 10 mg/kg): good anti-inflammatory activity; also recorded: significant anti-inflammatory activity
- Potency (anti-inflammatory) ([2]; 10 mg/kg): 0.94

SMILES: O=C1C(=NNc2nc(-c3cc4ccccc4oc3=O)cs2)c2ccccc2N1CNc1cccnc1 [Compound 4k, 3-{[4-(2-Oxo-2H-chromen-3-yl)-thiazol-2-yl]-hydrazono}-1-(pyridine-3-ylaminomethyl)-1,3-dihydro-indol-2-one]
- inhibition in vivo at 10 mg/kg ([1]; oral dose 10 mg/kg, mean ± SEM): 7.96 ± 0.432%
- analgesic activity (in words) ([1]; oral dose 10 mg/kg): least analgesic activity
- Potency (analgesic) [1]: 0.10
- Mean with ± SEM ([1]; oral dose 10 mg/kg): 29.83 ± 0.3073
- melting point: 231 to 233 °C
- inhibition in vivo at 10 mg/kg [2, 3]: 38.09 ± 0.214%
- inhibition in vivo at 10 mg/kg [2, 4]: 70.8%
- % Age Inhibition of Rat Paw Edema, 4 H ([2]; 4 h, 10 mg/kg): 70.75 ± 0.165%
- anti-inflammatory activity (in words) [2]: significant anti-inflammatory activity
- Potency (anti-inflammatory) ([2]; 10 mg/kg): 0.86

SMILES: O=C1C(=NNc2nc(-c3cc4ccccc4oc3=O)cs2)c2ccccc2N1CNc1ccc([N+](=O)[O-])cc1 [Compound 4l, 1-[(4-Nitro-phenylamino)-methyl]-3-{[4-(2-oxo-2H-chromen-3-yl)-thiazol-2-yl]-hydrazono}-1,3-dihydro-indol-2-one]
- inhibition in vivo at 10 mg/kg ([1]; oral dose 10 mg/kg, mean ± SEM): 44.98 ± 0.336%
- Potency (analgesic) [1]: 0.61
- Mean with ± SEM ([1]; oral dose 10 mg/kg): 17.83 ± 0.3079
- melting point: 241 to 243 °C
- inhibition in vivo at 10 mg/kg [2, 3]: 54.76 ± 0.228%
- inhibition in vivo at 10 mg/kg [2, 4]: 80.9%
- % Age Inhibition of Rat Paw Edema, 4 H ([2]; 4 h, 10 mg/kg): 80.94 ± 0.149 %
- anti-inflammatory activity (in words) ([2]; 10 mg/kg): good anti-inflammatory activity; also recorded: highest anti-inflammatory activity
- Potency (anti-inflammatory) ([2]; 10 mg/kg): 0.98

SMILES: Cc1ccc(NCN2C(=O)C(=NNc3nc(-c4cc5ccccc5oc4=O)cs3)c3ccccc32)cc1 [Compound 4m, 3-{[4-(2-Oxo-2H-chromen-3-yl)-thiazol-2-yl]-hydrazono}-1-(p-tolylamino-methyl)-1,3-dihydro-indol-2-one]
- inhibition in vivo at 10 mg/kg ([1]; oral dose 10 mg/kg, mean ± SEM): 32.6 ± 0.845%
- analgesic activity (in words) ([1]; oral dose 10 mg/kg): less analgesic activity
- Potency (analgesic) [1]: 0.44
- Mean with ± SEM ([1]; oral dose 10 mg/kg): 21.83 ± 0.2051
- melting point: 244 to 246 °C
- inhibition in vivo at 10 mg/kg [2, 3]: 53.27 ± 0.183%
- inhibition in vivo at 10 mg/kg [2, 4]: 78.4%
- % Age Inhibition of Rat Paw Edema, 4 H ([2]; 4 h, 10 mg/kg): 78.42 ±0.183 %
- anti-inflammatory activity (in words) ([2]; 10 mg/kg): good anti-inflammatory activity; also recorded: significant anti-inflammatory activity; also recorded: better anti-inflammatory activity
- Potency (anti-inflammatory) ([2]; 10 mg/kg): 0.95
